Values of other authors as cited in US20160346224A1, “COMPOSITIONS AND METHODS FOR REDUCING VISUAL LOSS” (Edge Therapeutics, Inc., priority 2015, published 2016).
No end group written: not given here.

Assays:
[1] = system: K+ and Na+ currents, and L, P/Q and T-type calcium currents
[2] = system: R-type current in preparations of the neuronal cell body, retinal ganglion cells and hippocampal pyramidal cells
[3] = biological target: T1, R-type calcium current in the neurohypophysial nerve endings (Rattus norvegicus, UniProt Q07652); conditions: at 40 nM concentration
T1 construct: R-type calcium current in the neurohypophysial nerve endings at 40 nM concentration; host or cells: neurohypophysial nerve endings (native tissue preparation)
T1 sequence (Q07652 whole entry): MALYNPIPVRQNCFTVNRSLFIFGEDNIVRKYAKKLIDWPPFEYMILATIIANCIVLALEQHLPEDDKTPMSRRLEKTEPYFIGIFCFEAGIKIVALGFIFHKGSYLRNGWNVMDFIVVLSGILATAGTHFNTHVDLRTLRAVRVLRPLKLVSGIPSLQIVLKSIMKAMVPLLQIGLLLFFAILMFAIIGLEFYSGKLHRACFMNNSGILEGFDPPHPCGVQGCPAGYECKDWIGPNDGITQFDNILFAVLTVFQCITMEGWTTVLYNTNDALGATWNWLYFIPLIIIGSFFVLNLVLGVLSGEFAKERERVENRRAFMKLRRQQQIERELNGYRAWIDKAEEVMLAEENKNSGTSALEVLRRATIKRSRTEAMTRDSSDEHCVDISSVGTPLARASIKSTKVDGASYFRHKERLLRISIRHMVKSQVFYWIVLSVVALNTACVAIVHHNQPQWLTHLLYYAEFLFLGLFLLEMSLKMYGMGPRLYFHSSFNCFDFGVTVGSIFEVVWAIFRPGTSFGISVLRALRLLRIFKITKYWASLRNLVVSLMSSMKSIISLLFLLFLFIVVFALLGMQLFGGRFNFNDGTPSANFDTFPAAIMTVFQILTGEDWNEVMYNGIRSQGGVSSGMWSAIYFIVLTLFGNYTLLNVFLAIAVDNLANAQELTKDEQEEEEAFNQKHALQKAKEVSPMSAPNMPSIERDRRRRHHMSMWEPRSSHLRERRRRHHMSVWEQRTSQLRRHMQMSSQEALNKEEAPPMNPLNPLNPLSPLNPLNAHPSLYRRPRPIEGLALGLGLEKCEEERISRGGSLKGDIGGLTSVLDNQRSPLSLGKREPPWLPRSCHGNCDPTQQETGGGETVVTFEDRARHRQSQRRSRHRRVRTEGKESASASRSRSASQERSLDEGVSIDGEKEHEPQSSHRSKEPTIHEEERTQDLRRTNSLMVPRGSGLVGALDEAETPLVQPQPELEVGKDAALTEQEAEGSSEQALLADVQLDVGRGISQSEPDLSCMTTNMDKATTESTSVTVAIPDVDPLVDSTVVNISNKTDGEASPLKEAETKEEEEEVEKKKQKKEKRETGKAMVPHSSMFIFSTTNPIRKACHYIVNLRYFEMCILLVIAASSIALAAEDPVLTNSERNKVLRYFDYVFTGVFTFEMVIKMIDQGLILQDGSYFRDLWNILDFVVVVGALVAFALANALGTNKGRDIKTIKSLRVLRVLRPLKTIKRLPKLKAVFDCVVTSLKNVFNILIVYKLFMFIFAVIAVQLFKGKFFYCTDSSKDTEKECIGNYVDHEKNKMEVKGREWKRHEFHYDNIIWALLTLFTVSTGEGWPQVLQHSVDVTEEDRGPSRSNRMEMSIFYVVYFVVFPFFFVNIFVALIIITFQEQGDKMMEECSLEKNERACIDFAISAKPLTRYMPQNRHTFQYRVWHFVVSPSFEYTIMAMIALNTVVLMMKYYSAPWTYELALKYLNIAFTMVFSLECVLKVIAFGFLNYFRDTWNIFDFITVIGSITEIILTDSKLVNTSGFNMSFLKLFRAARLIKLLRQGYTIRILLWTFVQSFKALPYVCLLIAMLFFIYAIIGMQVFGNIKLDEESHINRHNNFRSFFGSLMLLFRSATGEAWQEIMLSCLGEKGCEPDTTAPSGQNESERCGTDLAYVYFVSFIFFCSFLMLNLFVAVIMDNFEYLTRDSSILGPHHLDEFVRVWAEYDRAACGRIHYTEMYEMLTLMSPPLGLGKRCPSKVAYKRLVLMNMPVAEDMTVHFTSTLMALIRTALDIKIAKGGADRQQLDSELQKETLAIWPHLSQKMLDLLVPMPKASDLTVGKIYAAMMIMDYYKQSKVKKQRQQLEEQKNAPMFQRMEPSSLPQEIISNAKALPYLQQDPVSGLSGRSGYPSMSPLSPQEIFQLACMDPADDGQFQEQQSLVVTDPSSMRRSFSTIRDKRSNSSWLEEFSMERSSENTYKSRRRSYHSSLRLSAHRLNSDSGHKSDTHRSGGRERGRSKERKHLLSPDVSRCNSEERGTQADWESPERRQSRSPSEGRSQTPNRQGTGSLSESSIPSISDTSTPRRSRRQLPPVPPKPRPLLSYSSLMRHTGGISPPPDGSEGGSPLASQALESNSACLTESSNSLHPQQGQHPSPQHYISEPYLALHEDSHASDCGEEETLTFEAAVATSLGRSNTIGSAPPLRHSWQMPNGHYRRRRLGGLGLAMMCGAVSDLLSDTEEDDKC

N-type calcium current = N-type calcium current (Homo sapiens, UniProt Q00975); conditions: at 300 nM to 500 nM
Chain of N-type calcium current (Q00975 whole entry): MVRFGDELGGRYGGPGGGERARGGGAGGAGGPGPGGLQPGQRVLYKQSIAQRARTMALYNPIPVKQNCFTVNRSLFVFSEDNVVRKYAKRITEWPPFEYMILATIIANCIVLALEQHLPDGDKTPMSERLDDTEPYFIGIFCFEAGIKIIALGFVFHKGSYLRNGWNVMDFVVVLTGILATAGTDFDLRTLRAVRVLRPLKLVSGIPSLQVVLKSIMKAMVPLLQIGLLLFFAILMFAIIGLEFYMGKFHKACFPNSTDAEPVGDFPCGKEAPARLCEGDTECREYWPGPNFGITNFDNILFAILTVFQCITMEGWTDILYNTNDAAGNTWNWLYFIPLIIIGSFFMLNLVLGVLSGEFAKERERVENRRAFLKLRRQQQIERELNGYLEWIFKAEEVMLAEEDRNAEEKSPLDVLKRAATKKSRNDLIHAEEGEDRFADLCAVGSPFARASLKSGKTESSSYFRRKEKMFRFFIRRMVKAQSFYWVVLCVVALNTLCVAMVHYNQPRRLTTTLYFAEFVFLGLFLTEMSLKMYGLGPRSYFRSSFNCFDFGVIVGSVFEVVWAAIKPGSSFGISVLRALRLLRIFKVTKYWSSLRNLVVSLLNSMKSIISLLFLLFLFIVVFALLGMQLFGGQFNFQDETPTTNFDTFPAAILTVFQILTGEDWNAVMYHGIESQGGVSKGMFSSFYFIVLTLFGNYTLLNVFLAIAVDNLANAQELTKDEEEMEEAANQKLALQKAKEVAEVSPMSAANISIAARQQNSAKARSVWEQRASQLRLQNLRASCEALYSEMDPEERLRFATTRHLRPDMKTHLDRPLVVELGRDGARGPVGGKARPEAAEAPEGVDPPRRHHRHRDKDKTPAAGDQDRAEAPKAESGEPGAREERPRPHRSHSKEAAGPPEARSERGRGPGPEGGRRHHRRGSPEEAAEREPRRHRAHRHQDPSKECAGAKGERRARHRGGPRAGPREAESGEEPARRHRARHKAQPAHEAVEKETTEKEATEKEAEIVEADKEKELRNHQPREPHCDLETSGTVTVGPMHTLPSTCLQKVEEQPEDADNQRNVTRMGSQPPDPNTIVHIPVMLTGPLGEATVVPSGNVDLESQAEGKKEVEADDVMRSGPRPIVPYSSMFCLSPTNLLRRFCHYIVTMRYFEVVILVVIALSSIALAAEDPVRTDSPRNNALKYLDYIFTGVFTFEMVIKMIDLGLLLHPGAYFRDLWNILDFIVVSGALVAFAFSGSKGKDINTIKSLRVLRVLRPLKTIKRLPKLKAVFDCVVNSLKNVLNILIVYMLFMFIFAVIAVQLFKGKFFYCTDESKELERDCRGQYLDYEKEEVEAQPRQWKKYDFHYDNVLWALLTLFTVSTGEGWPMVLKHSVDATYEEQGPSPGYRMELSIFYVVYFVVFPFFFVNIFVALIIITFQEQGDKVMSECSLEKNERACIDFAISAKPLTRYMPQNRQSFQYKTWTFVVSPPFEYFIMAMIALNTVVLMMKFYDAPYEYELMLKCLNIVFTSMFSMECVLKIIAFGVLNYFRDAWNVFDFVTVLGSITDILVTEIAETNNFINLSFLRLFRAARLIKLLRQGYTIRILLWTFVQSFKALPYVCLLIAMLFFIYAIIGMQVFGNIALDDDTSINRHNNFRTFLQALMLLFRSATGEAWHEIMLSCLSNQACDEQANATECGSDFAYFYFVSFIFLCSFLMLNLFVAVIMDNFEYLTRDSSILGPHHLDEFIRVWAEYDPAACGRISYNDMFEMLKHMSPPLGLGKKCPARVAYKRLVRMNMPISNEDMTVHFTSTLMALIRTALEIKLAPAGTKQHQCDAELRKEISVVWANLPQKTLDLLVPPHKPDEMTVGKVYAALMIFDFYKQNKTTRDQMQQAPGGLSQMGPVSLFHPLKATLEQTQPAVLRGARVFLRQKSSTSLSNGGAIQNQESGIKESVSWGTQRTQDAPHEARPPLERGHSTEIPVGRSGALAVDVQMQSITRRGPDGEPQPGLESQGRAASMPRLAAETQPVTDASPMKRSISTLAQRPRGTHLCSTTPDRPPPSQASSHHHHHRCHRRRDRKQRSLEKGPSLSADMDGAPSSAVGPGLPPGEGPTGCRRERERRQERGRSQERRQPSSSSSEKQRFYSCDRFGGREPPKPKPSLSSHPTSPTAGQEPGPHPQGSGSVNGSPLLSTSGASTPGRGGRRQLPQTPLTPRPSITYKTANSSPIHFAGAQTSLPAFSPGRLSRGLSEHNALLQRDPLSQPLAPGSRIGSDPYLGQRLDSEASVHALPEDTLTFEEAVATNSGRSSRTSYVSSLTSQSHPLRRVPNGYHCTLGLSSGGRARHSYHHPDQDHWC

Substance: SNX-482: toxin from the tarantula Hysterocrates gigas, a 41 amino acid residue peptide with 3 disulfide linkages; putative R-type selective antagonist (GVDKAGCRYMFGGCSVNDDCCPRLGCHSLFSYCAWDLTFSD; disulfide (positions not given here); also: 3 disulfide linkages, pairings not given here; UniProt P56854 1-41, looked up)
- effect on K+ and Na+ currents, and L, P/Q and T-type calcium currents [1]: no effect
- effect on R-type current [2]: no significant effect
- block of R-type calcium current [3]: blocks
- block of N-type calcium current (N-type calcium current): 30-50%
